Laboratory results: patent publication US11970493B2, “Autotaxin inhibitor compounds” (ILDONG PHARMACEUTICAL CO., LTD., priority 2020, dated 2024)

Assays:
hATX/ENPP2 = hATX/ENPP2 (Homo sapiens, UniProt Q13822); assay: hATX/ENPP2 biochemical assay using 16:0-LPC as substrate (Amplex Red/choline oxidase/HRP fluorescence); settings: hENPP2 2.5 nM, LPC (16:0) substrate
Summary of the method: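 Enzyme preincubated with compounds 15 min at room temperature in 50 mM Tris-HCl pH 8.0, 140 mM NaCl, 5 mM CaCl2, 0.01% Triton X-100. Reaction started with 80 μM LPC (16:0) stock plus Amplex Red/choline oxidase/HRP mix; fluorescence (ex 530/em 590 nm) read kinetically. IC50 from slope between 60 and 70 min.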

[1] = Mouse PK study (IV and PO); type: in vivo; settings: male, C57BL/6, mouse, plasma, male C57BL/6 mice; for AUC(0-inf): IV 2 mg/kg and PO 10 mg/kg study; for bioavailability / Cmax: po, 10 mg/kg; for bioavailability: IV 2 mg/kg and PO 10 mg/kg, read-out: F % (bioavailability); for Cmax: PO group 10 mg/kg
Protocol: This example describes the pharmacokinetic (PK) data obtained for various compounds of the present disclosure, from studies using mice. The following PK parameters were calculated: • Bioavailability (F %) were calculated using the linear/log trapezoidal rule • Peak plasma concentrations (Cmax (ng/mL)) were taken directly from the plasma concentration vs. time profiles for the PO group • Area under the curve e.g., the area under the concentration curve from time 0 to infinity (AUC0-inf(ng*h/mL)). Experimental Procedures
After intravenous (IV) and oral (PO) administration at 2 mg/kg and 10 mg/kg to male C57BL/6 mice, respectively, the blood samples were collected at the designed sampling time points. All blood samples were transferred into pre-chilled commercial polyethylene microcentrifuge tubes containing K2-EDTA as an anticoagulant. Samples were processed for plasma by centrifugation. Plasma samples was transferred into polypropylene tubes pre-chilled on dry ice and then quickly frozen over dry ice and kept at −70±10° C. until LC-MS/MS analysis. Mice plasma samples were analyzed using qualified bioanalytical methods based on protein precipitation followed by LC-MS/MS analysis. Individual plasma concentration data of each compound was subjected to noncompartmental pharmacokinetic analysis using Phoenix WinNonlin™. Nominal doses were used for pharmacokinetic parameters calculation.

CCc1nc2ccc(-c3cnc(N4CCN(C(=O)C5(C#N)CC5)CC4)nc3)cn2c1N(C)c1nc(-c2ccc(F)cc2)c(C#N)s1 [Compound 1, 2-((6-(2-(4-(1-cyanocyclopropane-1-carbonyl)piperazin-1-yl)pyrimidin-5-yl)-2-ethylimidazo[1,2-a]pyridin-3-yl)(methyl)amino)-4-(4-fluorophenyl) thiazole-5-carbonitrile]
IC50 (hATX/ENPP2): ≤ 20 nM
AUC(0-inf) [1]: 27200 ng·h/mL
bioavailability [1]: 56.5%
Cmax [1]: 3030 ng/mL

CCc1nc2ccc(-c3cnc(N4CCN(C(=O)C5(O)CC5)CC4)nc3)cn2c1N(C)c1nc(-c2ccc(F)cc2)c(C#N)s1 [Compound 2, 2-((2-ethyl-6-(2-(4-(1-hydroxycyclopropane-1-carbonyl)piperazin-1-yl)pyrimidin-5-yl)imidazo[1,2-a]pyridin-3-yl)(methyl)amino)-4-(4-fluorophenyl)thiazole-5-carbonitrile]
IC50 (hATX/ENPP2): ≤ 20 nM
AUC(0-inf) [1]: 35100 ng·h/mL
bioavailability [1]: 61%
Cmax [1]: 4070 ng/mL

CCc1nc2ccc(-c3cnc(C(=O)N4CCCC4)nc3)cn2c1N(C)c1nc(-c2ccc(F)cc2)c(C#N)s1 [Compound 47, 2-((2-ethyl-6-(2-(pyrrolidine-1-carbonyl)pyrimidin-5-yl)imidazo[1,2-a]pyridin-3-yl)(methyl)amino)-4-(4-fluorophenyl)thiazole-5-carbonitrile]
IC50 (hATX/ENPP2): 20 to 200 nM
AUC(0-inf) [1]: 42300 ng·h/mL
bioavailability [1]: 62.3%
Cmax [1]: 4760 ng/mL

CCc1nc2ccc(-c3cnc(N4CCC(NC5CC5)CC4)nc3)cn2c1N(C)c1nc(-c2ccc(F)cc2)c(C#N)s1 [Compound 107, 2-((6-(2-(4-(cyclopropylamino)piperidin-1-yl)pyrimidin-5-yl)-2-ethylimidazo[1,2-a]pyridin-3-yl)(methyl)amino)-4-(4-fluorophenyl)thiazole-5-carbonitrile]
IC50 (hATX/ENPP2): 20 to 200 nM

CCc1nc2ccc(-c3cnc(N4CCC(NC5CCC5)CC4)nc3)cn2c1N(C)c1nc(-c2ccc(F)cc2)c(C#N)s1 [Compound 108, 2-((6-(2-(4-(cyclobutylamino)piperidin-1-yl)pyrimidin-5-yl)-2-ethylimidazo[1,2-a]pyridin-3-yl)(methyl)amino)-4-(4-fluorophenyl)thiazole-5-carbonitrile]
IC50 (hATX/ENPP2): 20 to 200 nM

CCc1nc2ccc(-c3cnc(N4CCN(C(=O)C5CC5)CC4)nc3)cn2c1N(C)c1nc(-c2ccc(F)cc2)c(C#N)s1 [Compound 110, 2-((6-(2-(4-(cyclopropanecarbonyl)piperazin-1-yl)pyrimidin-5-yl)-2-ethylimidazo[1,2-a]pyridin-3-yl)(methyl)amino)-4-(4-fluorophenyl) thiazole-5-carbonitrile]
IC50 (hATX/ENPP2): 20 to 200 nM

CCc1nc2ccc(-c3cnc(N4CCN(C(=O)C5CN(C6CC6)C5)CC4)nc3)cn2c1N(C)c1nc(-c2ccc(F)cc2)c(C#N)s1 [Compound 111, 2-((6-(2-(4-(1-cyclopropylazetidine-3-carbonyl)piperazin-1-yl)pyrimidin-5-yl)-2-ethylimidazo[1,2-a]pyridin-3-yl)(methyl)amino)-4-(4-fluorophenyl)thiazole-5-carbonitrile]
IC50 (hATX/ENPP2): 20 to 200 nM

CCc1nc2ccc(-c3ccc(N4CCN(C(=O)C5CCCC5)CC4)nc3)cn2c1N(C)c1nc(-c2ccc(F)cc2)c(C#N)s1 [Compound 112, 2-((6-(6-(4-(cyclopentanecarbonyl)piperazin-1-yl)pyridin-3-yl)-2-ethylimidazo[1,2-a]pyridin-3-yl)(methyl)amino)-4-(4-fluorophenyl)thiazole-5-carbonitrile]
IC50 (hATX/ENPP2): 20 to 200 nM

CCc1nc2ccc(-c3ccc(N4CCC(C(=O)N5CCC5)CC4)nc3)cn2c1N(C)c1nc(-c2ccc(F)cc2)c(C#N)s1 [Compound 122, 2-((6-(6-(4-(azetidine-1-carbonyl)piperidin-1-yl)pyridin-3-yl)-2-ethylimidazo[1,2-a]pyridin-3-yl)(methyl)amino)-4-(4-fluorophenyl)thiazole-5-carbonitrile]
IC50 (hATX/ENPP2): ≤ 20 nM
AUC(0-inf) [1]: 47700 ng·h/mL
bioavailability [1]: 57.8%
Cmax [1]: 7000 ng/mL
